We go through 5 compounds from patent publication US20250281402A1, “COMPOSITIONS FOR LOCAL THERAPY DELIVERY TO BRAIN TUMORS AND METHODS” (Massachusetts Institute of Technology, priority 2022, published 2025).

In data set [1] the test system is GL261. The data set is described as follows: Potency (cell viability v. concentration) against GBM cell line GL261. In kind it is cell-based. As for the experimental part:
(§1) The potencies of several therapies again GBM cells lines were measured.
(§2) FIG. 3 depicts a plot of cell viability v. concentration of each of the therapies listed in the foregoing table.

The subject of data set [2] is CT-2A. As to the kind of experiment: Potency (cell viability v. concentration) against GBM cell line CT-2A. It counts as cell-based. As for the experimental part: as §1, §2
The test system of data set [3] is GBM spheroids. As to the kind of experiment: Elimination of GBM spheroids in vitro. It counts as cell-based. The note with it: compared with other tested chemotherapies. The source says: The other tested chemotherapies, however, may be used in the methods and compositions described herein.
The nature of data set [4]: In vitro drug release from hydrogels. In kind it is physicochemical. As for the experimental part: Doxorubin release profiles of the foregoing compositions were tested.
Also compared was the cumulative release percentage of doxil and doxorubicin.
The in vitro release of acriflavine also was tested. An injectable hydrogel formulation (75% oxidized dextran, 12.5% w/v; PAMAM dendrimer, 15% w/v, pH 9.2) was prepared with four different loading concentrations (0.625 mg, 1.25 mg, 2.5 mg, and 5 mg, each of which had been previously injected locally in the brain).

In data set [5] the test system is GBM cells. The data set is described as follows: Calreticulin surface expression and HMGB1 excretion of GBM cells.
Setting [6] is: Mus musculus, GL261, read-out: IC50 in GL261.

Where two headings read alike, the source gives them in different places.

On to `O=NN(CCCl)C(=O)NCCCl` [Carmustine (BCNU), Carmustine], for which the values for the IC50 in data set [1] (setting [6]) and in data set [2] (read-out: IC50 in CT-2A) were 146000 nM and 156 µM, respectively.

As to `Cn1nnc2c(C(N)=O)ncn2c1=O` [Temozolomide], the IC50 is above 750000 nM in data set [1] (setting [6]) and above 750 µM in data set [2] (read-out: IC50 in CT-2A).

As to `COc1cccc2c1C(=O)c1c(O)c3c(c(O)c1C2=O)C[C@@](O)(C(=O)CO)C[C@@H]3O[C@H]1C[C@H](N)[C@H](O)[C@H](C)O1` [Doxorubicin], the IC50 in data set [1] (Mus musculus, GL261, comparative testing doxil v. doxorubicin, FIG. 20A/20B, read-out: potency from cell viabilities, GL261 (quantity not named)) is 830 nM; in data set [1] (setting [6]), 800 nM; in data set [2] (comparative testing doxil v. doxorubicin, FIG. 20A/20B, read-out: potency from cell viabilities, CT-2A (quantity not named)) it was 0.17 µM; in data set [2] (read-out: IC50 in CT-2A) it was 0.1 µM. Also, in data set [3], the “elimination of GBM spheroids” value is listed as “more potently eliminated GBM spheroids in vitro than other tested chemotherapies”. In addition, the “cumulative percentage released, doxorubicin compared with doxil” value in data set [4] (over 200 hours, FIG. 11) is “greater cumulative percentage”. Also, in data set [5] (FIG. 42, FIG. 43), the “surface expression of calreticulin” value is listed as “increase the surface expression of calreticulin”. Further, the HMGB1 excretion entry in data set [5] (at relevant concentrations) was “did not impact HMGB1 excretion at relevant concentrations”.

In the case of Acriflavine, the IC50 in data set [1] (read-out: IC50 in GL261) stood at 2700 nM; in data set [2] (read-out: IC50 in CT-2A), 7.3 µM. Also, in data set [4] (released from hydrogel), the activity upon release entry was “retained its activity upon release”.

Regarding `CCc1c2c(nc3ccc(OC(=O)N4CCC(N5CCCCC5)CC4)cc13)-c1cc3c(c(=O)n1C2)COC(=O)[C@]3(O)CC` [Irinotecan], the IC50 came out at 107000 nM in data set [1] (setting [6]) and 150 µM in data set [2] (read-out: IC50 in CT-2A).
